# According to ChEMBL document CHEMBL5154896, “Discovery of a Novel Class of d-Amino Acid Oxidase Inhibitors Using the Schrödinger Computational Platform” (J Med Chem, 2022):
# Calls of active or inactive are those of the source. No cut-off for these calls is given here.
# Legend:
# [1] = In vivo receptor occupancy at DAO in C57BL/6 mouse cerebellum at 150 mg/kg, po measured after 4 hrs relative to control; assay type: functional
# [2] = molecular target: T1, Prostaglandin G/H synthase 2 (Homo sapiens, UniProt P35354); assay: Inhibition of human COX2
# T1 sequence (P35354 whole entry): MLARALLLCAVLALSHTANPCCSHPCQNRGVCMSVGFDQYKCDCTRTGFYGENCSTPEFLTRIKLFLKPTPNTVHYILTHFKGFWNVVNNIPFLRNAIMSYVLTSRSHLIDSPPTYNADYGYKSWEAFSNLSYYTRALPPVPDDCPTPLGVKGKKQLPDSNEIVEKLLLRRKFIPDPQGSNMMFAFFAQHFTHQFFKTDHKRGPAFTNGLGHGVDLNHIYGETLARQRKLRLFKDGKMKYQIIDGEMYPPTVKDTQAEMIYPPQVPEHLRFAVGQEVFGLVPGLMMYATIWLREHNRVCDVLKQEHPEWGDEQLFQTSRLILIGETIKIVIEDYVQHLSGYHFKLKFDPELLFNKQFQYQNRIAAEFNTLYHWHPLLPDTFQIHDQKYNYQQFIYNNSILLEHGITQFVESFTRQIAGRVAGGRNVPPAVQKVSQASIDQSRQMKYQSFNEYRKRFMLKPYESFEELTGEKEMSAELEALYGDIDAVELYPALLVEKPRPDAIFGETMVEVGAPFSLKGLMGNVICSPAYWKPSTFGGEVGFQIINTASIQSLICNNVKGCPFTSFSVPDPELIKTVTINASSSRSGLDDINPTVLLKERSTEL
# Glucocorticoid receptor = molecular target: T2, Glucocorticoid receptor (Homo sapiens, UniProt P04150); assay: Inhibition of GR human glucocorticoid NHR incubated for 360 mins by scintillation counting based radiometry assay
# T2 sequence (P04150 whole entry): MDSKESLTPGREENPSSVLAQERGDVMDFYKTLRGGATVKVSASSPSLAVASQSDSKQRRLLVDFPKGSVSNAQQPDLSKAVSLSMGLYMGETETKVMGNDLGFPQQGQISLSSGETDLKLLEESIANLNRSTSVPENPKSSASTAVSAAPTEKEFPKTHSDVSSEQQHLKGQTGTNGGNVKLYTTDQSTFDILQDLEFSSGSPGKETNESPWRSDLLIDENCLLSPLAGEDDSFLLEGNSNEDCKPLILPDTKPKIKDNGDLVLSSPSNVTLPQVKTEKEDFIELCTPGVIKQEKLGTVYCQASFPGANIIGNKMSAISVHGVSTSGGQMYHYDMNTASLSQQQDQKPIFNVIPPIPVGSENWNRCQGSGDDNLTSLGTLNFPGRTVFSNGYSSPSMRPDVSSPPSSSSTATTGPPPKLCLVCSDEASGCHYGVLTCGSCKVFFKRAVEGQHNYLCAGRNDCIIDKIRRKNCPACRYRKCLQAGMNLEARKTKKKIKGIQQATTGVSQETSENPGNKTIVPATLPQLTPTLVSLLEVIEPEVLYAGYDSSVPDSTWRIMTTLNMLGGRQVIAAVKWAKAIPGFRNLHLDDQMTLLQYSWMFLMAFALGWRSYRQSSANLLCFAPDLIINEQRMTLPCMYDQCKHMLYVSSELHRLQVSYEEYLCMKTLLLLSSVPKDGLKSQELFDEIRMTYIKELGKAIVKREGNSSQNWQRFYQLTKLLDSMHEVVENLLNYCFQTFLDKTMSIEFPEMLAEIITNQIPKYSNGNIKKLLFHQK
# Mus musculus [3] = assay: Effect of compound in C57BL/6 mouse catalepsy model assessed as decrease in plasma prolactin level at 150 mg/kg, po bid administered for every 4 hrs; assay type: functional, organism-based
# D-amino-acid oxidase [4] = molecular target: D-amino-acid oxidase (Mus musculus, UniProt P18894); assay: Inhibition of full length mouse DAO transfected with CHO-K1 cells incubated for 30 mins by Amplex red and horseradish peroxidase based fluorescence assay; assay type: cell-based
# Sequence of D-amino-acid oxidase (Mus musculus, UniProt P18894) (P18894 whole entry): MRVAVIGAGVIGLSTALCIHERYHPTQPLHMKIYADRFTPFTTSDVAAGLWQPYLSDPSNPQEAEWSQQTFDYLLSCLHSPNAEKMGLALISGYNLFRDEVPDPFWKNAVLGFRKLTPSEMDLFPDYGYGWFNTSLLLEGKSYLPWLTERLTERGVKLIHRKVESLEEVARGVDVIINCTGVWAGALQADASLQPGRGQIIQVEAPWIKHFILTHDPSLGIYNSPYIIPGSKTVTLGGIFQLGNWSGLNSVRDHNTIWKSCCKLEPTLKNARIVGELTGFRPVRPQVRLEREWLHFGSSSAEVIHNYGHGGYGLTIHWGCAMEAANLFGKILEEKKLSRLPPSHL
# Mus musculus [5] = assay: Effect of compound in C57BL/6 mouse catalepsy model assessed as no catalepsy at 150 mg/kg, po bid administered for every 4 hrs; assay type: functional, organism-based
# [6] = molecular target: T3, Peroxisome proliferator-activated receptor gamma (Homo sapiens, UniProt P37231); assay: Inhibition of recombinant human PPAR gamma NHR incubated for 120 mins by scintillation counting based radiometry assay
# T3 sequence (P37231 whole entry): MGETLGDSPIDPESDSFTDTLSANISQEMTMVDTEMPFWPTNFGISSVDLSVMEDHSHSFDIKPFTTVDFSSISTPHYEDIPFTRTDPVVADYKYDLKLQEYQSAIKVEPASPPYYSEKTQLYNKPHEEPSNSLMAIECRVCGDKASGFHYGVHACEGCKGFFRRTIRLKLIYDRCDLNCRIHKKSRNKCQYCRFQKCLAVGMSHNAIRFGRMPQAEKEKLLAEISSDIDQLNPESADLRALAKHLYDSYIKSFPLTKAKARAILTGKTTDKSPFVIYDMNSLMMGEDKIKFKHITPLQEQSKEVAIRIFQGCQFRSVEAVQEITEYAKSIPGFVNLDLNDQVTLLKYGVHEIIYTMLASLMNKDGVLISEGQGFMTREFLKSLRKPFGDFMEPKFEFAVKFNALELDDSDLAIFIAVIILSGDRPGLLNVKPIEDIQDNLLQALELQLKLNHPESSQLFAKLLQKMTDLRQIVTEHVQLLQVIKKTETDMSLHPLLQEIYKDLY
# [7] = In vivo receptor occupancy at DAO in C57BL/6 mouse cerebellum at 150 mg/kg, po measured after 10 hrs relative to control; assay type: functional
# Adenosine receptor A3 = molecular target: T4, Adenosine receptor A3 (Homo sapiens, UniProt P0DMS8); assay: Inhibition of recombinant human adenosine A3 GPCR incubated for 120 mins by scintillation counting based radiometry assay
# T4 sequence (P0DMS8 whole entry): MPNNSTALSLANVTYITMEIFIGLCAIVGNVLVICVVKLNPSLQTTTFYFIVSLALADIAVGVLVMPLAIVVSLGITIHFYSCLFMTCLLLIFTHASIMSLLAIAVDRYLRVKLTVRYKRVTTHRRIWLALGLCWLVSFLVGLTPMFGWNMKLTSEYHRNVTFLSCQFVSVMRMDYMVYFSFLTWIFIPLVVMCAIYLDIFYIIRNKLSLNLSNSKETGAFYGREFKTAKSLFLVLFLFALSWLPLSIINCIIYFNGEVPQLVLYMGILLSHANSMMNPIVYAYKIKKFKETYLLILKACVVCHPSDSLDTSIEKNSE
# [8] = In vivo receptor occupancy at DAO in C57BL/6 mouse cerebellum at 150 mg/kg, po measured after 6 hrs relative to control; assay type: functional
# [9] = molecular target: T5, Polyunsaturated fatty acid 5-lipoxygenase (Homo sapiens, UniProt P09917); assay: Inhibition of human recombinant 5-LOX incubated for 5 mins by fluorimetry
# T5 sequence (P09917 whole entry): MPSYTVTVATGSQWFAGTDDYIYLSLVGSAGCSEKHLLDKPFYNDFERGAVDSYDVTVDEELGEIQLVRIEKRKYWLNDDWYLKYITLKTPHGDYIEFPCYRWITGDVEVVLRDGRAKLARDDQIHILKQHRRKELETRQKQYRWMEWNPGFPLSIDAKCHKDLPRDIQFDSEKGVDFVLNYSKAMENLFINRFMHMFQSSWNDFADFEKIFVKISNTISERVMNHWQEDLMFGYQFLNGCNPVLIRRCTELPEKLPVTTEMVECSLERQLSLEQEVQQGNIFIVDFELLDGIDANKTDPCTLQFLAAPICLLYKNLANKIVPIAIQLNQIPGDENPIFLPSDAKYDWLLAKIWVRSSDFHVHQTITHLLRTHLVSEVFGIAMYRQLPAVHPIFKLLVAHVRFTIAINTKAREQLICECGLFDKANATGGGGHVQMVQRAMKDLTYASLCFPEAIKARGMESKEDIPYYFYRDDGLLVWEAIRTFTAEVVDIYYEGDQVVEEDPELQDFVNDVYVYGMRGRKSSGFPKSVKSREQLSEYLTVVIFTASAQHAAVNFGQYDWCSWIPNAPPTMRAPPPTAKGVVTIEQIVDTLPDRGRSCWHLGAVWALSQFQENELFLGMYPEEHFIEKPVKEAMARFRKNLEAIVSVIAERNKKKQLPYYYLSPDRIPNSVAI
# [10] = Unbound drug concentration in C57Bl/6 mouse brain at 2 mg/kg, po or 0.5 mg/kg,iv by LC-MS-MS analysis; assay type: ADME, organism-based; conditions: C57Bl/6, mouse, brain
# [11] = Efflux ratio of apparent permeability across basolateral to apical side over apical to basolateral side in MDCK-MDR1 cells; conditions: dog
# [12] = Volume of distribution at steady state in C57/BL6 mouse at 2 mg/kg, po or 0.5 mg/kg,iv by LC-MS-MS analysis; assay type: ADME, organism-based; conditions: in vivo
# D-amino-acid oxidase [13] = molecular target: D-amino-acid oxidase (Homo sapiens, UniProt P14920); assay: Inhibition of recombinant full length human DAO preincubated with compound for 20 mins measured after 4 hrs by Amplex red and horseradish peroxidase based fluorescence assay
# Sequence of D-amino-acid oxidase (Homo sapiens, UniProt P14920) (P14920 whole entry): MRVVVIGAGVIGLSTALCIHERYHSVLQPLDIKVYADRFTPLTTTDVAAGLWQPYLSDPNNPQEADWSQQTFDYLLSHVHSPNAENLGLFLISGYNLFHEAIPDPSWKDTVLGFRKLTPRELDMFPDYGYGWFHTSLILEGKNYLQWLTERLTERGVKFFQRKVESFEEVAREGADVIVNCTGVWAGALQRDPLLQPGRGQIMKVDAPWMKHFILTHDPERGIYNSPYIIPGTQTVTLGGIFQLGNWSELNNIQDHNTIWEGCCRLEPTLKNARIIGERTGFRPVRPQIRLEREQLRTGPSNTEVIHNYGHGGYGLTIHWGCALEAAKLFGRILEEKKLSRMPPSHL
# [14] = Unbound drug concentration in C57Bl/6 mouse plasma at 2 mg/kg, po or 0.5 mg/kg,iv by LC-MS-MS analysis; assay type: ADME, organism-based; conditions: C57Bl/6, mouse, plasma
# [15] = Oral bioavailability in C57/BL6 mouse at 2 mg/kg by LC-MS-MS analysis; assay type: ADME, organism-based; conditions: in vivo
# [16] = Brain to plasma permeability coefficient, Kp in C57Bl/6 mouse 2 mg/kg, po or 0.5 mg/kg,iv by LC-MS-MS analysis; assay type: ADME, organism-based; conditions: C57Bl/6, mouse, brain and plasma, read-out: Kp
# [17] = Half life in C57/BL6 mouse at 0.5 mg/kg,iv by LC-MS-MS analysis; assay type: ADME, organism-based; conditions: in vivo
# [18] = Dose normalized AUC in C57/BL6 mouse at 2 mg/kg, po by LC-MS-MS analysis; assay type: ADME, organism-based; conditions: in vivo
# [19] = Apparent permeability across apical to basolateral membrane in MDCK-MDR1 cells by LC-MS/MS analysis; conditions: dog
# [20] = Unbound brain-to-plasma concentration ratio in C57Bl/6 mouse at 2 mg/kg, po or 0.5 mg/kg,iv by LC-MS-MS analysis; assay type: ADME, organism-based; conditions: C57Bl/6, mouse, brain and plasma, read-out: K(p,uu,brain)
smiles,measurement,setting,value
O=c1[nH]cc(CSc2ccc(C(F)(F)F)cc2)[nH]c1=O,Activity,[1],75%
same,IC50,[2],> 10 µM
same,IC50,Glucocorticoid receptor,> 10 µM
same,Activity,Mus musculus [3],Active
same,EC50,D-amino-acid oxidase [4],0.51 µM
same,Activity,Mus musculus [5],Active
same,IC50,[6],> 10 µM
same,Activity,[7],59%
same,IC50,Adenosine receptor A3,> 10 µM
same,Activity,[8],86%
same,IC50,[9],> 10 µM
O=c1[nH]cc(CSc2ccc(C(F)F)cc2)[nH]c1=O,IC50,[2],> 10 µM
same,IC50,Glucocorticoid receptor,> 10 µM
same,EC50,D-amino-acid oxidase [4],0.62 µM
same,IC50,[6],> 10 µM
same,IC50,Adenosine receptor A3,> 10 µM
same,IC50,[9],> 10 µM
O=c1[nH]c2ccsc2[nH]c1=O,fraction unbound,[10],0.26
same,efflux ratio,[11],0.8
same,Vdss,[12],0.2 L/kg
same,IC50,D-amino-acid oxidase [13],0.12 µM
same,fraction unbound,[14],0.22
same,bioavailability,[15],34%
same,Kp,[16],0.004
same,half-life,[17],1.2 h
same,AUC/dose,[18],6266 ng·h/mL
same,Papp A→B,[19],8.8 ×10⁻⁶ cm/s
same,Kp uu,[20],0.005
